Source: paper PMC2267209, “Transepithelial Transport and Enzymatic Detoxification of Gluten in Gluten-Sensitive Rhesus Macaques” (PLoS ONE, 2008)
One block for each substance: values may come before it.

Columns and labels:
[1] = tested on: gluten-sensitive rhesus macaque FH45; assay: Indirect ELISA for plasma AGA and anti-TG2 antibodies during gluten challenge with EP-B2; assay type: in vivo, rhesus macaques (Macaca mulatta)
Source text: Gluten-sensitive FH45 and control FI96 were switched from a gluten-containing to a gluten-free diet at week 0, re-challenged with the gluten-containing diet from week 10.4 to 11.4, and then returned to a gluten-free diet for the remainder of the experiment. To test whether orally administered EP-B2 can prevent clinical symptoms resulting from gluten challenge, animals were fed a gluten-free diet with the addition of a daily slice of unbleached wheat bread (∼4 g gluten) for 8 weeks (weeks 22.9 to 30.9), during the first 4 of which (weeks 22.9 to 26.9) gluten-sensitive macaque FH45 received a daily dose of 2 g recombinant proEP-B2 dissolved in an electrolyte drink immediately prior to bread consumption. Recombinant proEP-B2 was expressed and purified as previously described, [31]. Peripheral blood samples (1 ml) were collected every 1–2 weeks from a femoral vein, and plasma was harvested and stored at −80 °C until analyzed for AGA and anti-TG2 antibodies. Clinical health was monitored as previously described. Briefly, daily clinical scores were averaged over weekly intervals to obtain each weekly mean±standard deviation. Criteria for clinical scoring (1–6 scale) were scaled relative to “clinically normal”, age-matched controls, i.e. score of 1. Score 2 corresponded to beginning of diarrhea, i.e. pasty stools. Score 3 corresponded to semi-liquid stools and decreased activity. Score 4 corresponded to liquid stools, decreased activity, moderate dehydration and “balloon” stomach. Score 5 corresponded to liquid stools, depression, severe dehydration and balloon stomach. Score 6 corresponded to a moribund animal where prompt euthanasia is recommended.
ELISA assays were performed as previously described.

[2] = tested on: gluten-sensitive rhesus macaque FH45; assay: Daily gluten challenge with or without oral EP-B2, clinical score; assay type: in vivo, rhesus macaques (Macaca mulatta)
Source text: Gluten-sensitive FH45 and control FI96 were switched from a gluten-containing to a gluten-free diet at week 0, re-challenged with the gluten-containing diet from week 10.4 to 11.4, and then returned to a gluten-free diet for the remainder of the experiment. To test whether orally administered EP-B2 can prevent clinical symptoms resulting from gluten challenge, animals were fed a gluten-free diet with the addition of a daily slice of unbleached wheat bread (∼4 g gluten) for 8 weeks (weeks 22.9 to 30.9), during the first 4 of which (weeks 22.9 to 26.9) gluten-sensitive macaque FH45 received a daily dose of 2 g recombinant proEP-B2 dissolved in an electrolyte drink immediately prior to bread consumption. Recombinant proEP-B2 was expressed and purified as previously described, [31]. Peripheral blood samples (1 ml) were collected every 1–2 weeks from a femoral vein, and plasma was harvested and stored at −80 °C until analyzed for AGA and anti-TG2 antibodies. Clinical health was monitored as previously described. Briefly, daily clinical scores were averaged over weekly intervals to obtain each weekly mean±standard deviation. Criteria for clinical scoring (1–6 scale) were scaled relative to “clinically normal”, age-matched controls, i.e. score of 1. Score 2 corresponded to beginning of diarrhea, i.e. pasty stools. Score 3 corresponded to semi-liquid stools and decreased activity. […]

[3] = tested on: celiac patient-derived T cells; conditions: ref [2], [19], cited from earlier work
[4] = rhesus monkey, in vivo
Procedure: A 0.5 ml sample of EDTA-blood was collected from an ear vein at 0, 30, 60, 120, and 180 min following the 33-mer inoculation. […] Animals were fasted at least 2 h prior to peptide inoculations. Blood collections and 33-mer inoculations were performed with sedated and anesthetized animals.
Following peptide dosing and peripheral plasma collection, described above, plasma proteins were precipitated by addition of acetonitrile. Plasma was mixed with an equal volume of cold acetonitrile+0.1% formic acid, vortexed, incubated for 2 h at 4°C, and centrifuged at 14,000•g for 10 min at 4°C. […] When quantitation was performed, unlabeled 33-mer was spiked into the plasma samples prior to acetonitrile precipitation as an internal control (5 pmol/100 µl injection) and injections were performed at least in triplicate.
Mass spectrometry analysis was performed as previously described [20] with the following modifications. […] For ^D933-mer, the transitions monitored were m/z 981.0^4+→263.1^+ (30V cone voltage, 27eV collision energy.) for the quantitation assay and m/z 1307.7^3+→263.1^+ (40V cone voltage, 50eV collision energy) as a confirmatory transition. […] Levels of ^D933-mer in each sample were determined by comparison of the area under the ^D933-mer transition peak to the area under the internal standard transition peak. […]

[5] = daily 2 g proEP-B2 plus wheat bread

Substance: EP-B2: gluten-specific barley cysteine endoprotease, dosed orally as recombinant proenzyme; oral glutenase drug candidate for celiac disease
Anti-TG2 IgA ([1]; EP-B2 treatment with gluten challenge): unable to detect
AGA levels during wheat bread/EP-B2 administration relative to gluten-containing diet (week 0) [1, 5]: ~3 fold
Anti-TG2 IgG levels over the course of EP-B2 treatment [1, 5]: elevated
Clinical health during gluten challenge with EP-B2 ([2]; daily 2 g recombinant proEP-B2 oral immediately before a daily slice of wheat bread (∼4 g gluten), first 4 weeks (weeks 22.9 to 26.9), clinical score 1–6 scale): remained clinically healthy
Time to signs of clinical illness after EP-B2 dosing was concluded ([2]; wheat bread gluten challenge continued without EP-B2 (weeks 26.9 to 30.9)): ~1 week

Substance: LQLQPFPQPQLPYPQPQLPYPQPQLPYPQPQPF [33-mer, immunotoxic 33-mer gluten peptide derived from gastrointestinal proteolysis of α2-gliadin; unlabeled form used as internal standard]
Concentration sufficient to stimulate proliferation of celiac patient-derived T cells ([3]; T cells in culture): low nanomolar concentrations
Proliferation of celiac patient-derived T cell lines ([3]; all T cell lines tested so far): activates proliferation in all celiac patient-derived T cell lines tested so far

Detection of peptide in peripheral plasma at 60 minutes [4]: detected
Concentration in peripheral plasma at 60 minutes ([4]; SD): 7.0 ± 0.4 nM
Substance: LQLQPFPQPQLPYPQPQLPYPQPQLPYPQPQPF [^D933-mer]
